Where two headings read alike, the source gives them in different places.
What was measured:
two-spotted mites = two-spotted mites on bean plants, spray, mortality after two days; assay type: in vivo; conditions: Tetranychus urticae, 48 h, read-out: % Mortality (2 days)
Method: Mortality was evaluated two days after spraying.
Mortality after two days is set forth below.

Venturia inaequalis [1] = assay: apple scab preventive test; assay type: in vivo; conditions: 10-12 days
Method: (§1) Compounds of this invention are dissolved in acetone in an amount equal to 6% of the final volume and then suspended at a concentration of 20 ppm in purified water containing 25 ppm of the surfactant Alkanol® XC (sodium alkyl naphthalene sulfonate). This suspension is sprayed to the point of run-off on apple seedlings. The following day, the plants are inoculated with a spore suspension of the fungus Venturia inaequalis and incubated in a growth room for 10-12 days. Disease ratings are then made. […] Phytotoxicity in the form of foliar burn was observed on some of the plants in association with disease control.

Venturia inaequalis [2] = assay: apple scab residual wash-off test; assay type: in vivo; conditions: 1/2 inch simulated rainfall, 10-12 days
Method: as §1, with “day, 1/2 inch of simulated rainfall is applied to the foliage of the plants. When the foliage is dry,” for “day,”, “on” for “on some of”

Venturia inaequalis [3] = assay: apple scab photostability test; assay type: in vivo; conditions: xenon arc 3500 foot candles 16 hours, 10-12 days
Method: as §1, with “seedlings. When the foliage is dry, the plants are exposed to 3500 foot candles of light from a xenon arc source for a period of 16 hours. This light source approximates the spectrum of natural sunlight, and is used to assess photostability of the compounds of this invention on plant foliage.” for “seedlings.”

Erysiphe cichoracearum [4] = assay: cucumber powdery mildew preventive test; assay type: in vivo; conditions: Golovinomyces cichoracearum, 168 h, 7 days
Method: as §1, with “cucumber” for “apple”, “Erysiphe cichoracearum” for “Venturia inaequalis”, “7” for “10-12”, “burn or growth reduction” for “burn”

Erisyphe cichoracearum = assay: cucumber powdery mildew curative test; assay type: in vivo; conditions: Cucumis sativus, 144 h, sprayed day after inoculation, additional 6 days
From the text: Cucumber plants are inoculated with a spore suspension of the fungus Erisyphe cichoracearum and in a growth room overnight. The following day, the plants are sprayed to the point of run-off with a suspension prepared by dissolving compounds of this invention in acetone in an amount equal to 6% of the final volume and then suspended at a concentration of 20 ppm in purified water containing 25 ppm of the surfactant Alkanol® XC (sodium alkyl naphthalene sulfonate). Plants are returned to the growth room for an additional 6 days when disease ratings are then made. […] Phytotoxicity in the form of foliar burn or growth reduction was observed on some of the plants in association with disease control.

Erysiphe cichoracearum [5] = assay: cucumber powdery mildew residual wash-off test; assay type: in vivo; conditions: Golovinomyces cichoracearum, 168 h, 1/2 inch simulated rainfall, 7 days
Method: Compounds of this invention are dissolved in acetone in an amount equal to 6% of the final volume and then suspended at a concentration of 20 ppm in purified water containing 25 ppm of the surfactant Alkanol® XC (sodium alkyl naphthalene sulfonate). This suspension is sprayed to the point of run-off on cucumber seedlings. The following day, 1/2 inch of simulated rainfall is applied to the foliage of the plants. When the foliage is dry, the plants are inoculated with a spore suspension on the fungus Erysiphe cichoracearum and incubated in a growth room for 7 days. Disease ratings are then made.

Erysiphe cichoracearum [6] = assay: cucumber powdery mildew photostability test; assay type: in vivo; conditions: Golovinomyces cichoracearum, 168 h, xenon arc 3500 foot candles 16 hours, 7 days
Method: Compounds of this invention are dissolved in acetone in an amount equal to 6% of the final volume and then suspended at a concentration of 20 ppm in purified water containing 25 ppm of the surfactant Alkanol® XC (sodium alkyl naphthalene sulfonate). This suspension is sprayed to the point of run-off in cucumber seedlings. When the foliage is dry, the plants are exposed to 3500 foot candles of light from a xenon arc source for a period of 16 hours. This light source approximates the spectrum of natural sunlight, and is used to assess photostability of the compounds of this invention on plant foliage. The following day, the plants are inoculated with a spore suspension of the fungus Erysiphe cichoracearum and incubated in a growth room for 7 days. Disease ratings are then made.

[7] = system: Puccinia graminis var. tritici; assay: whole plant or invertebrate; assay type: in vivo; conditions: 192 h, read-out: % control wheat rust in preventive test
[8] = system: Puccinia graminis var. tritici; assay: whole plant or invertebrate; assay type: in vivo; conditions: 192 h, read-out: % control wheat rust in residual wash-off test
[9] = system: Puccinia graminis var. tritici; assay: whole plant or invertebrate; assay type: in vivo; conditions: 192 h, read-out: % control wheat rust in a photostability test
Phytophthora infestans [10] = assay: whole plant or invertebrate; assay type: in vivo; conditions: in Solanum lycopersicum, 96 h, read-out: % control tomato late blight in a residual wash-off test
Phytophthora infestans [11] = assay: whole plant or invertebrate; assay type: in vivo; conditions: in Solanum lycopersicum, 96 h, read-out: % control tomato late blight in a photostability test
Rhizopus = assay: Rhizopus-corn meal mixture overspray test; conditions: 168 h, read-out: % control Rhizopus
Method: Compounds of this invention were dissolved in acetone in an amount equal to 6% of final volume and then suspended at a concentration of 100 ppm in purified water containing 500 ppm of the surfactant Alkanol® XC (sodium alkyl naphthalene sulfonate). This solution was oversprayed on a Rhizopus-corn meal mixture in 6 cm aluminum cups. The sprayed plates were placed in a closed plastic bag, stored at 20° C. for 7 days, and then rated.
The untreated cups were completely covered with Rhizopus mycelial growth, but the treated cups were mostly free of growth by this disease-causing organism.

Sclerotinia sclerotiorum = assay: white mold on carrot sections dip test; conditions: 100 ppm dip, 20° C., six days
Method: Surface-sterilized carrot sections were dipped two minutes in a 100 ppm solution of the compounds of this invention. Additional sections were dipped in a check solution which contained 500 ppm Alkanol® XC (sodium alkyl naphthalene sulfonate). After inoculation by placing a mycelial plug of Sclerotinia sclerotiorum on each carrot section, the test was held at 20° C. for six days.
The untreated carrot sections were completely invaded with the mycelial growth of white mold fungus, but the treated sections had little or no growth by this disease causing organism.

[12] = system: organo-phosphorous resistant two-spotted spider mites; assay: organo-phosphorous resistant two-spotted spider mites on bean plants, spray, mortality after two days; conditions: Tetranychus urticae, 48 h, read-out: % Mortality (2 days)
[13] = system: Eggs of the beet armyworm (Spodoptera exigua); assay: beet armyworm egg (ovicidal) test, % eggs failing to hatch; assay type: in vivo; conditions: 72 h, 200 ppm in acetone, three days, read-out: % Control (% eggs failing to hatch)
Method: Eggs of the beet armyworm (Spodoptera exigua), laid on cellophane discs each containing 50-75 eggs, were placed in petri dishes and lightly sprayed with 1% concentrations of the indicated compounds in acetone solution. Three days later, percent control (% eggs failing to hatch) was determined.
Eggs of the beet armyworm (Spodoptera exigua), laid on cellophane discs each containing 50-75 eggs, were placed in petri dishes and lightly sprayed with 200 ppm concentration of the indicated compounds in acetone solution. Three days later, percent control (% eggs failing to hatch) was determined.

[14] = system: adult cotton boll weevils (Anthonomus grandis); assay: adult cotton boll weevils spray test; assay type: in vivo; conditions: 1% acetone solution, 24 hours
Method: Five adult cotton boll weevils (Anthonomus grandis) were confined in a 4-oz. wide mouth jar. These were sprayed with a 1% acetone solution of the indicated compounds. Percent mortality after 24 hours is set forth below.

adult houseflies = adult houseflies spray test; assay type: in vivo, housefly; conditions: Musca domestica; 1% acetone solutions, 24 hours
From the text: Twenty adult houseflies were confined in each of several cylindrical stainless steel cages (7.5 cm D×4 cm high) with wire screens of the ends. These were sprayed with 1% acetone solutions of the indicated compounds.

[15] = system: red-legged grasshoppers (Melanoplus femurrubrum); assay: red-legged grasshoppers spray test; assay type: in vivo; conditions: 10 ppm in acetone, 48 hours
Method: Five red-legged grasshoppers (Melanoplus femurrubrum) were confined in each of several cylindrical stainless steel cages (7.5 cm D×4 cm high) with wire screens at the end. These were sprayed with 10 ppm concentration of the indicated compounds in acetone solution. Percent mortality after 48 hours is recorded below.

[16] = system: brown dog ticks (Rhipicephalus sanguineus); assay: brown dog ticks spray test; assay type: in vivo; conditions: 48 h, 12.5 ppm in acetone, forty eight hours
Method: Four-ounce wide mouth jars, each containing 10 brown dog ticks (Rhipicephalus sanguineus), were sprayed with 12.5 ppm concentration of the indicated compounds in acetone solution. The ticks were confined with caps which were also sprayed. Forty eight hours later, percent mortality was determined.

## Cc1ccc(S(=O)(=O)N(SN(c2cc(C(F)(F)F)ccc2Cl)c2c([N+](=O)[O-])cc([N+](=O)[O-])cc2C(F)(F)F)C(C)C)cc1
two-spotted mites; spray concentration .00025%
  mortality at 0.00025 %: 100%
two-spotted mites; spray concentration .0005%
  mortality at 0.0005 %: 100%
two-spotted mites; spray concentration .001%
  mortality at 0.001 %: 100%
Venturia inaequalis [1]
  pest or weed control at 20 ppm: 100%
Venturia inaequalis [2]
  pest or weed control at 20 ppm: 100%
Venturia inaequalis [3]
  pest or weed control at 20 ppm: 0%
Erysiphe cichoracearum [4]
  pest or weed control at 20 ppm: 100%
Erisyphe cichoracearum
  pest or weed control at 20 ppm: 90%
Erysiphe cichoracearum [5]
  pest or weed control at 20 ppm: 99%
Erysiphe cichoracearum [6]
  pest or weed control at 20 ppm: 40%
[7]
  pest or weed control at 20 ppm: 100%
[8]
  pest or weed control at 20 ppm: 97%
[9]
  pest or weed control at 20 ppm: 80%
Phytophthora infestans [10]
  pest or weed control at 20 ppm: 100%
Phytophthora infestans [11]
  pest or weed control at 20 ppm: 90%
Rhizopus
  inhibition of growth at 100 ppm: 100%
Sclerotinia sclerotiorum
  % control White Mold: 100%
[12]
  mortality at 0.0005 %: 83%
  mortality at 0.001 %: 99%
  mortality at 0.002 %: 99%

## CCCCN(SN(c1cc(C(F)(F)F)ccc1Cl)c1c([N+](=O)[O-])cc([N+](=O)[O-])cc1C(F)(F)F)S(=O)(=O)c1ccccc1
[13]
  mortality at 200 ppm: 100%
[14]
  mortality at 1 %: 100%
Adult houseflies
  mortality at 1 %: 100%
[15]
  mortality at 10 ppm: 100%
[16]
  mortality at 12.5 ppm: 100%
Venturia inaequalis [1]
  pest or weed control at 20 ppm: 100%
Venturia inaequalis [2]
  pest or weed control at 20 ppm: 100%
Venturia inaequalis [3]
  pest or weed control at 20 ppm: 0%
Erysiphe cichoracearum [4]
  pest or weed control at 20 ppm: 100%
Erisyphe cichoracearum
  pest or weed control at 20 ppm: 50%
Erysiphe cichoracearum [5]
  pest or weed control at 20 ppm: 98%
Erysiphe cichoracearum [6]
  pest or weed control at 20 ppm: 0%
[7]
  pest or weed control at 20 ppm: 100%
[8]
  pest or weed control at 20 ppm: 97%
[9]
  pest or weed control at 20 ppm: 90%
Phytophthora infestans [10]
  pest or weed control at 20 ppm: 100%
Phytophthora infestans [11]
  pest or weed control at 20 ppm: 90%
Sclerotinia sclerotiorum
  % control White Mold: 86%
